Measurements: patent publication US8017767B2, “Sucralose composition” (Tate & Lyle Public Limited Company, priority 2000, dated 2011)

Assay: Accelerated stability test (50° C.) with pH stability test of sucralose sample solution
Assay type: physicochemical
Details: for Days to pH Failure: WHIRLPAK polyethylene bags, failure = pH drop ≧1.0; for Initial pH: sample solution (5 g in 50 ml pH-adjusted water) at time zero; for Initial pH difference: sample solution vs pH-adjusted water at time zero
Source text: Label seven 6 oz. and seven 18 oz. WHIRLPAK® polyethylene bags with indelible marker for each batch being tested for stability. Accurately weigh 25 g±0.01 g of sucralose into each 6 oz. WHIRLPAK® polyethylene bag. Heat or impulse seal the 6 oz. bag to ensure air tightness. Cut off any excess polyethylene at the top of the bag above the seal. Place the 6 oz. sealed bag into the 18 oz. bag and heat or impulse seal the 18 oz. bag to ensure air tightness. Roll down the top of the 18 oz. bag above the seal and bend the metal ties to form hooks.
Place the prepared bags into an oven stabilized at 50° C.±0.5° C. by hanging them from racks by the bag hooks. The bags must be freely suspended and not touch anything. Record the time samples are placed into the oven.
The pH stability test is conducted on the sucralose at time zero (the day the samples are placed in the oven, before the sucralose is exposed to elevated temperature) and every 24 hours until the batch being tested fails the test.
Place approximately 100 ml of deionized water into a 150 ml beaker. Using 0.1 N hydrochloric acid and/or 0.1 N sodium hydroxide, adjust the pH of the water to be between 5.8 and 6.0. Record the pH reading.
Accurately weigh 5 g±0.001 g of the product to be tested and transfer it to a 50 ml volumetric flask. Dissolve and bring to the mark by adding pH-adjusted water. If the sample to be tested is one that has been exposed to heat, remove one bag of the batch being tested from the oven and allow it to cool to room temperature before opening and sampling.
Pour the solution into a 100 ml beaker containing a stir bar, and slowly stir the solution on a magnetic stirrer. Immerse the pH electrode in the sample, allow the pH reading to stabilize, and record the pH reading of the sample. If no pH drop is observed after all the bags have been tested, the experiment is void and the test must repeated with a larger number of bags.
Record (to one decimal place) the pH of both the pH-adjusted water used and the sample sucralose solution. Subtract the pH of the […]. Report the result as (−) for a pH drop and (+) for a pH gain, e.g.:
The sample fails the test if there is a pH drop of 1.0 pH unit or more. The pH stability of the batch is defined as the number of days until the pH drop between the sample solution and that of the pH adjusted water is ≧1.0.
Samples of sucralose were tested for stability using the above procedures, but using bags of different moisture permeability. All other experimental details were the same. The TYVEK®/polyethylene bags are permeable; the WHIRLPAK® bags are less permeable. The A8080 bag consists of aluminum foil laminated to low-density polyethylene, which makes it very impermeable to moisture.

[1] = 50° C., Example 1, sodium acetate in mother liquor varied
[2] = Example 1, sodium acetate in mother liquor varied
[3] = (−) pH drop, (+) pH gain, Example 1
[4] = 50° C., Example 2, pH at crystallizer varied
[5] = Example 2, pH at crystallizer varied

Compound | Days to pH Failure [1] [Days] | Initial pH [2] | Initial pH difference [3] | also measured
OC[C@H]1O[C@H](O[C@]2(CCl)O[C@H](CCl)[C@@H](O)[C@@H]2O)[C@H](O)[C@@H](O)[C@H]1Cl [Sample 29, 4,1′,6′-trichloro-4,1′,6′-trideoxy-galactosucrose] | 6 | 6.09 | +0.12 | 
OC[C@H]1O[C@H](O[C@]2(CCl)O[C@H](CCl)[C@@H](O)[C@@H]2O)[C@H](O)[C@@H](O)[C@H]1Cl [Sample 46, 4,1′,6′-trichloro-4,1′,6′-trideoxy-galactosucrose] |  |  |  | Days to pH Failure [4]: 7 Days; Initial pH difference [5]: +0.43
OC[C@H]1O[C@H](O[C@]2(CCl)O[C@H](CCl)[C@@H](O)[C@@H]2O)[C@H](O)[C@@H](O)[C@H]1Cl [Sample 25, 4,1′,6′-trichloro-4,1′,6′-trideoxy-galactosucrose] | 6 | 6.03 | +0.05 | 
OC[C@H]1O[C@H](O[C@]2(CCl)O[C@H](CCl)[C@@H](O)[C@@H]2O)[C@H](O)[C@@H](O)[C@H]1Cl [Sample 24, 4,1′,6′-trichloro-4,1′,6′-trideoxy-galactosucrose] | 5 | 6.02 | +0.03 | Ph Stability (50° C., package A8080 (aluminum foil laminated to low-density polyethylene), impermeable): 8 days; Ph Stability (50° C., package FF 91 TYVEK/Polyethylene, very permeable): 4 days; Ph Stability (50° C., package WHIRLPAK Polyethylene, moderately permeable): 5 days
OC[C@H]1O[C@H](O[C@]2(CCl)O[C@H](CCl)[C@@H](O)[C@@H]2O)[C@H](O)[C@@H](O)[C@H]1Cl [Sample 26, 4,1′,6′-trichloro-4,1′,6′-trideoxy-galactosucrose] | 6 | 6.06 | +0.10 | 
OC[C@H]1O[C@H](O[C@]2(CCl)O[C@H](CCl)[C@@H](O)[C@@H]2O)[C@H](O)[C@@H](O)[C@H]1Cl [Sample 19, 4,1′,6′-trichloro-4,1′,6′-trideoxy-galactosucrose] | 6 | 6.06 | +0.13 | 
OC[C@H]1O[C@H](O[C@]2(CCl)O[C@H](CCl)[C@@H](O)[C@@H]2O)[C@H](O)[C@@H](O)[C@H]1Cl [Sample 9, 4,1′,6′-trichloro-4,1′,6′-trideoxy-galactosucrose] | 7 | 6.19 | +0.23 | 
OC[C@H]1O[C@H](O[C@]2(CCl)O[C@H](CCl)[C@@H](O)[C@@H]2O)[C@H](O)[C@@H](O)[C@H]1Cl [Sample 44, 4,1′,6′-trichloro-4,1′,6′-trideoxy-galactosucrose] |  |  |  | Days to pH Failure [4]: 6 Days; Initial pH difference [5]: −0.18
OC[C@H]1O[C@H](O[C@]2(CCl)O[C@H](CCl)[C@@H](O)[C@@H]2O)[C@H](O)[C@@H](O)[C@H]1Cl [Sample 12, 4,1′,6′-trichloro-4,1′,6′-trideoxy-galactosucrose] | 6 | 5.85 | −0.10 | 
OC[C@H]1O[C@H](O[C@]2(CCl)O[C@H](CCl)[C@@H](O)[C@@H]2O)[C@H](O)[C@@H](O)[C@H]1Cl [Sample 17, 4,1′,6′-trichloro-4,1′,6′-trideoxy-galactosucrose] | 6 | 6.03 | +0.10 | 
OC[C@H]1O[C@H](O[C@]2(CCl)O[C@H](CCl)[C@@H](O)[C@@H]2O)[C@H](O)[C@@H](O)[C@H]1Cl [Sample 10, 4,1′,6′-trichloro-4,1′,6′-trideoxy-galactosucrose] | 5 | 5.90 | −0.05 | 
OC[C@H]1O[C@H](O[C@]2(CCl)O[C@H](CCl)[C@@H](O)[C@@H]2O)[C@H](O)[C@@H](O)[C@H]1Cl [Sample 39, 4,1′,6′-trichloro-4,1′,6′-trideoxy-galactosucrose] |  |  |  | Days to pH Failure [4]: 7 Days; Days to pH Failure (Final Product Moisture Content) (50° C., final dried product, Example 3): 7 Days; Days to pH Failure (Initial Moisture Content) (50° C., partially dried product at intermediate (initial) moisture content, Example 3): 13 Days; Initial pH difference [5]: −0.02
